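Test compounds were applied to cells in 96-well plates for 48 hours at 5 doses. GI50 = concentration required for 50% inhibition of growth. TGI: total growth inhibition.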
Key:
Experiment in all cases: DTP human tumour cell line panel, 48 h
[1] = system: 786-0 renal
[2] = system: COLO 205 colon
[3] = system: DU-145 prostate
[4] = system: HT29 colon
[5] = system: KM12 colon
[6] = system: OVCAR-5 ovarian
[7] = system: OVCAR-8 ovarian
[8] = system: RPMI-8226 leukemia
[9] = system: UACC-257 melanoma
[10] = system: UACC-62 melanoma

Compound: Cc1c(C2=C(c3cn(C)c4ccccc34)C(=O)NC2=O)c2ccccc2n1C
- GI50 [1]: 3.56 µM
- TGI [1]: > 25 µM
- GI50 [2]: 1.51 µM
- TGI [2]: > 25 µM
- GI50 [3]: 9.62 µM
- TGI [3]: > 25 µM
- GI50 [4]: 1.12 µM
- TGI [4]: > 25 µM
- GI50 [5]: 3.87 µM
- TGI [5]: > 25 µM
- GI50 [6]: > 25 µM
- TGI [6]: > 25 µM
- GI50 [7]: 10.8 µM
- TGI [7]: > 25 µM
- GI50 [8]: > 13.8 µM
- TGI [8]: > 25 µM
- GI50 [9]: > 25 µM
- TGI [9]: > 25 µM
- GI50 [10]: 1.95 µM
- TGI [10]: > 25 µM

Compound: CCN(Cc1ccc(Cl)s1)c1ccc(CO)c(Cl)c1
- GI50 [1]: 2.99 µM
- TGI [1]: 21.2 µM
- GI50 [2]: 1.73 µM
- TGI [2]: 5.99 µM
- GI50 [3]: 12 µM
- TGI [3]: > 60.4 µM
- GI50 [4]: 3.01 µM
- TGI [4]: 16.4 µM
- GI50 [5]: 14.7 µM
- TGI [5]: 31.6 µM
- GI50 [6]: 0.0644 µM
- TGI [6]: 0.297 µM
- GI50 [7]: 5.75 µM
- TGI [7]: 27.6 µM
- GI50 [8]: 1.41 µM
- TGI [8]: 24.5 µM
- GI50 [9]: 0.0898 µM
- TGI [9]: 0.298 µM
- GI50 [10]: 0.0861 µM
- TGI [10]: 0.438 µM

Compound: N/N=C1\CC(=O)NC(=O)N1
- TGI [1]: > 100 µM
- TGI [2]: > 100 µM
- TGI [3]: > 100 µM
- TGI [4]: > 100 µM
- TGI [5]: > 100 µM
- TGI [6]: > 100 µM
- TGI [7]: > 100 µM
- TGI [8]: > 100 µM
- TGI [9]: > 100 µM
- TGI [10]: > 100 µM

Compound: O=C(O)COc1c(Cl)cc(Cl)c2cccnc12
- TGI [1]: > 100 µM
- TGI [2]: > 100 µM
- TGI [3]: > 100 µM
- TGI [4]: > 100 µM
- TGI [5]: > 100 µM
- TGI [6]: > 100 µM
- TGI [7]: > 100 µM
- TGI [8]: > 100 µM
- TGI [9]: > 100 µM
- TGI [10]: > 100 µM

Compound: Cc1ccc(NC(=O)c2ccccc2C(=O)O)cc1C
- TGI [1]: > 100 µM
- TGI [2]: > 100 µM
- TGI [3]: > 100 µM
- TGI [4]: > 100 µM
- TGI [5]: > 100 µM
- TGI [6]: > 100 µM
- TGI [7]: > 100 µM
- TGI [8]: > 100 µM
- TGI [9]: > 100 µM
- TGI [10]: > 100 µM

Compound: C#CCOc1cccc(Nc2ncnc3c(NC(=O)CCl)cccc23)c1
- GI50 [1]: 18.7 µM
- TGI [1]: 37.9 µM
- GI50 [2]: 18.7 µM
- TGI [2]: 38.4 µM
- GI50 [3]: 17.2 µM
- TGI [3]: 37.8 µM
- GI50 [4]: 18.6 µM
- TGI [4]: 34.4 µM
- GI50 [5]: 17.4 µM
- TGI [5]: 37.8 µM
- GI50 [6]: 21.3 µM
- TGI [6]: 57 µM
- GI50 [7]: 31.6 µM
- TGI [7]: > 100 µM
- GI50 [8]: 20.9 µM
- TGI [8]: 43.9 µM
- GI50 [9]: 45 µM
- TGI [9]: > 100 µM
- GI50 [10]: 27 µM
- TGI [10]: > 100 µM

Compound: Cc1cccc(NC(=O)c2sc3nc4c(cc3c2N)CN(Cc2ccccc2)CC4)c1C
- GI50 [1]: 0.197 µM
- TGI [1]: 28.5 µM
- GI50 [2]: 0.274 µM
- TGI [2]: > 50 µM
- GI50 [3]: 0.201 µM
- TGI [3]: > 50 µM
- GI50 [4]: 0.147 µM
- TGI [4]: 1.6 µM
- GI50 [5]: 0.193 µM
- TGI [5]: > 50 µM
- GI50 [6]: 0.484 µM
- TGI [6]: > 50 µM
- GI50 [7]: 0.297 µM
- TGI [7]: > 50 µM
- GI50 [8]: 0.198 µM
- TGI [8]: > 50 µM
- GI50 [9]: > 50 µM
- TGI [9]: > 50 µM
- GI50 [10]: 0.274 µM
- TGI [10]: > 50 µM

Compound: Nc1ccccc1SCc1csc(-c2ccc(Cl)cc2)n1
- TGI [1]: 47.5 µM
- TGI [2]: 34.6 µM
- TGI [3]: 99.1 µM
- TGI [4]: 46.2 µM
- TGI [5]: 47.4 µM
- TGI [6]: > 95.2 µM
- TGI [7]: > 100 µM
- TGI [8]: 44.7 µM
- TGI [9]: > 77.7 µM
- TGI [10]: > 64 µM

Compound: CCn1c2ccccc2c2cc(/C=C(/C#N)C(N)=O)ccc21
- GI50 [1]: 10.6 µM
- TGI [1]: > 100 µM
- GI50 [2]: 4.65 µM
- TGI [2]: > 100 µM
- GI50 [3]: 13.8 µM
- TGI [3]: > 100 µM
- GI50 [4]: 5.18 µM
- TGI [4]: > 100 µM
- GI50 [5]: 13.5 µM
- TGI [5]: > 100 µM
- GI50 [6]: 0.668 µM
- TGI [6]: 3.95 µM
- GI50 [7]: 42.6 µM
- TGI [7]: > 100 µM
- GI50 [8]: 7.94 µM
- TGI [8]: > 84.7 µM
- GI50 [9]: 4.18 µM
- TGI [9]: 15.8 µM
- GI50 [10]: 1.91 µM
- TGI [10]: 7.65 µM

Compound: COc1ccc2c(c1)OC1=C(C(=O)OC1)C2c1cc(OC)c2c(c1)OCO2 (stereo not given)
- GI50 [1]: 0.0506 µM
- TGI [1]: > 100 µM
- GI50 [2]: 0.031 µM
- TGI [2]: 0.0908 µM
- GI50 [3]: 0.0364 µM
- TGI [3]: 0.459 µM
- GI50 [4]: 0.0328 µM
- TGI [4]: > 100 µM
- GI50 [5]: 0.0304 µM
- TGI [5]: 0.416 µM
- GI50 [6]: 0.153 µM
- TGI [6]: > 100 µM
- GI50 [7]: 0.0516 µM
- TGI [7]: > 100 µM
- GI50 [8]: 0.0487 µM
- TGI [8]: > 100 µM
- GI50 [9]: > 46.1 µM
- TGI [9]: > 100 µM
- GI50 [10]: 0.0478 µM
- TGI [10]: > 100 µM

Compound: O=C1NC(=O)C(c2cccc(Cl)c2)=C1Nc1ccc(O)c(Cl)c1
- GI50 [1]: 12.1 µM
- TGI [1]: > 25 µM
- GI50 [2]: > 20.1 µM
- TGI [2]: > 25 µM
- GI50 [3]: 14.1 µM
- TGI [3]: > 25 µM
- GI50 [4]: 10 µM
- TGI [4]: > 25 µM
- GI50 [5]: 10.5 µM
- TGI [5]: > 25 µM
- GI50 [6]: 22.4 µM
- TGI [6]: > 25 µM
- GI50 [7]: 14 µM
- TGI [7]: > 25 µM
- GI50 [8]: 14 µM
- TGI [8]: > 25 µM
- GI50 [9]: > 25 µM
- TGI [9]: > 25 µM
- GI50 [10]: 7.63 µM
- TGI [10]: > 25 µM

Compound: CN(CC(N)=O)C(=O)N(CCCl)N=O
- TGI [1]: > 100 µM
- TGI [2]: > 100 µM
- TGI [3]: > 100 µM
- TGI [4]: > 100 µM
- TGI [5]: > 100 µM
- TGI [6]: > 100 µM
- TGI [7]: > 100 µM
- TGI [8]: > 100 µM
- TGI [9]: > 100 µM
- TGI [10]: > 100 µM

Compound: BrCc1ccc(CBr)cc1
- GI50 [1]: 2.59 µM
- TGI [1]: 8.63 µM
- GI50 [2]: 0.146 µM
- TGI [2]: > 100 µM
- GI50 [3]: 3.38 µM
- TGI [3]: 12.9 µM
- GI50 [4]: 4.38 µM
- TGI [4]: > 23.9 µM
- GI50 [5]: 1.29 µM
- TGI [5]: 6.71 µM
- GI50 [6]: 9.61 µM
- TGI [6]: 29.1 µM
- GI50 [7]: 5.52 µM
- TGI [7]: 20.9 µM
- GI50 [8]: 3.1 µM
- TGI [8]: 13.3 µM
- GI50 [9]: 14 µM
- TGI [9]: 38.9 µM
- GI50 [10]: 5.13 µM
- TGI [10]: 22.3 µM

Compound: O=C(Nc1cccc(Nc2ncc(Br)c(NCCc3cnc[nH]3)n2)c1)N1CCCC1
- GI50 [1]: 9.36 µM
- TGI [1]: 32.6 µM
- GI50 [2]: 0.562 µM
- TGI [2]: 4.06 µM
- GI50 [3]: 7.08 µM
- TGI [3]: 36.5 µM
- GI50 [4]: 3.85 µM
- TGI [4]: 24.2 µM
- GI50 [5]: 0.869 µM
- TGI [5]: 11.5 µM
- GI50 [6]: 9.29 µM
- TGI [6]: 73.1 µM
- GI50 [7]: 8.44 µM
- TGI [7]: 24.8 µM
- GI50 [8]: 3.9 µM
- TGI [8]: 19.5 µM
- GI50 [9]: 12 µM
- TGI [9]: 37.5 µM
- GI50 [10]: 6.12 µM
- TGI [10]: 22.4 µM

— PubChem BioAssay (NCI)
